Active and inactive are the calls of the source. The rule behind the calls is not given here.
Key:
[1] = Cmax in Sprague-Dawley rat plasma at 10 mg/kg, po; type: ADME, organism-based; parameters: route oral, dose 10 mg/kg
[2] = Toxicity in Beagle dog assessed as animal death at 1 to 20 mg/kg, po; type: organism-based, Canis lupus familiaris; conditions: in vivo, dose 1-20 mg/kg
[3] = target: T1, Acetylcholinesterase (Mus musculus) (UniProt P21836); test: Ex vivo inhibition of AChE in ICR mouse hippocampal homogenate at 2 mg/kg, ig using acetylthiocholine iodide as substrate measured after 30 to 240 mins by DTNB reagent based assay; type: functional, organism-based; conditions: time 30-240 min
T1 sequence (whole entry): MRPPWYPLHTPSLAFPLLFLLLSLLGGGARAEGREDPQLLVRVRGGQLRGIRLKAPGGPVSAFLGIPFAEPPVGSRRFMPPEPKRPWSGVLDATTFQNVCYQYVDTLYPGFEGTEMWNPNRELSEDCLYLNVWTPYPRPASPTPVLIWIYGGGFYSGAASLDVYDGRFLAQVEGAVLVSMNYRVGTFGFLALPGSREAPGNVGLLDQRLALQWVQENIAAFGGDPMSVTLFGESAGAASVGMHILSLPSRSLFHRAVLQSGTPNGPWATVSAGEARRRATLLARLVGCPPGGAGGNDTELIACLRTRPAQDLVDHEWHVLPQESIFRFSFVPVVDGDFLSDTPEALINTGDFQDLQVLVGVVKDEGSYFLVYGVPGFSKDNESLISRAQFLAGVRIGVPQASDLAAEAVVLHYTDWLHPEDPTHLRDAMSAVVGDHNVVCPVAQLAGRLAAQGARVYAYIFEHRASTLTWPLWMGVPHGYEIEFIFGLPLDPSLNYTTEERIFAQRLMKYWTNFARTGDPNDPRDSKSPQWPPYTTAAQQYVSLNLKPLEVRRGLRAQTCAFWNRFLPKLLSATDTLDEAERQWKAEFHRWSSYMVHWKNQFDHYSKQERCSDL

[4] = Genotoxicity in Salmonella typhimurium TA1535 by Ames test; type: toxicity; conditions: salmonella enterica subsp. enterica serovar typhimurium
[5] = target: T1, Acetylcholinesterase (Mus musculus); test: Ex vivo inhibition of AChE in ICR mouse cortex homogenate at 2 mg/kg, ig using acetylthiocholine iodide as substrate measured after 30 to 240 mins by DTNB reagent based assay; type: functional, organism-based; conditions: time 30-240 min
[6] = Half life in Sprague-Dawley rat at 0.5 mg/kg, po; type: ADME, organism-based; conditions: in vivo
[7] = Toxicity in Beagle dog assessed as effect on body temperature at 0.1 to 1 mg/kg; type: organism-based, Canis lupus familiaris; conditions: in vivo, dose 0.1-1 mg/kg
[8] = Genotoxicity in Salmonella typhimurium TA100 by Ames test; type: toxicity; conditions: salmonella enterica subsp. enterica serovar typhimurium

## COc1cc2c(cc1OC)C(=O)C(CC1(F)CCN(Cc3ccccc3F)CC1)C2 (stereo not drawn)
[1]
  Cmax: 215 ng/mL
[2]
  Activity: Non-Toxic
[3]
  inhibition: Active
[4]
  Activity: Non-Toxic
[5]
  inhibition: Active
[6]
  half-life: 4.17 h
[7]
  Activity: Non-Toxic
[8]
  Activity: Non-Toxic
